Values of other authors in article PMC5114336, “Enhanced anti-tumour activity of the combination of the novel MEK inhibitor WX-554 and the novel PI3K inhibitor WX-037” (Cancer Chemotherapy and Pharmacology, 2016).

How the values were obtained:
HCT116 cells = settings: HCT116, using the same assay; read-out: GI50 (potency); cited from earlier work
HT29 cells = settings: HT29, using the same assay; read-out: GI50 (potency); cited from earlier work

Q: What does the source list for O=C(NOC[C@H](O)CO)c1ccc(F)c(F)c1Nc1ccc(I)cc1F [PD 0325901]?
A: GI50 (HCT116 cells): 21 nM; GI50 (HT29 cells): 6.5 nM
